Measurements published in patent publication EP4722212A1, “NOVEL COMPOUND FOR INHIBITING PROTEIN KINASES AND PHARMACEUTICAL COMPOSITION COMPRISING SAME” (Magicbullettherapeutics Co., Ltd., priority 2023, dated 2024).
Read-outs that look alike come from different tables or passages of the source.

Legend:
Experiment in all cases: Kinase panel
Assay type in all cases: biochemical
ABL1 = ABL1 (Homo sapiens, UniProt P00519); details: ABL1, 1 µM; read-out: residual enzyme activity
Protocol: (§1) To measure the inhibitory activity of protein kinases against the compounds of the present invention, a biochemical assay was performed using a full kinase panel. The inhibitory efficacy of kinases was measured when Example compounds 8 and 51 were treated at a single concentration of 1 µM, and residual enzyme activity values were calculated. Kinases were identified when the calculated residual enzyme activity values were 40% or less, i.e., inhibited by 60% or more.

AXL = AXL (Homo sapiens, UniProt P30530); details: read-out: residual enzyme activity
Protocol: as §1

BRSK1 = BRSK1 (Homo sapiens, UniProt Q8TDC3); details: BRSK1, 1 µM; read-out: residual enzyme activity
Protocol: as §1

CDK18/CYCLIN Y (PCTK3) = CDK18/CYCLIN Y (PCTK3) (Homo sapiens, UniProt Q07002); details: read-out: residual enzyme activity
Protocol: as §1

DYRK1B = DYRK1B (Homo sapiens, UniProt Q9Y463); details: read-out: residual enzyme activity
Protocol: as §1

EPHB2 = EPHB2 (Homo sapiens, UniProt P29323); details: EPHB2, 1 µM; read-out: residual enzyme activity
Protocol: as §1

ERBB2/HER2 = ERBB2/HER2 (Homo sapiens, UniProt P04626); details: ERBB2/HER2, 1 µM; read-out: residual enzyme activity
Protocol: as §1

FGFR3 = FGFR3 (Homo sapiens, UniProt P22607); details: FGFR3, 1 µM; read-out: residual enzyme activity
Sequence of FGFR3 (P22607 23-806, species assumed): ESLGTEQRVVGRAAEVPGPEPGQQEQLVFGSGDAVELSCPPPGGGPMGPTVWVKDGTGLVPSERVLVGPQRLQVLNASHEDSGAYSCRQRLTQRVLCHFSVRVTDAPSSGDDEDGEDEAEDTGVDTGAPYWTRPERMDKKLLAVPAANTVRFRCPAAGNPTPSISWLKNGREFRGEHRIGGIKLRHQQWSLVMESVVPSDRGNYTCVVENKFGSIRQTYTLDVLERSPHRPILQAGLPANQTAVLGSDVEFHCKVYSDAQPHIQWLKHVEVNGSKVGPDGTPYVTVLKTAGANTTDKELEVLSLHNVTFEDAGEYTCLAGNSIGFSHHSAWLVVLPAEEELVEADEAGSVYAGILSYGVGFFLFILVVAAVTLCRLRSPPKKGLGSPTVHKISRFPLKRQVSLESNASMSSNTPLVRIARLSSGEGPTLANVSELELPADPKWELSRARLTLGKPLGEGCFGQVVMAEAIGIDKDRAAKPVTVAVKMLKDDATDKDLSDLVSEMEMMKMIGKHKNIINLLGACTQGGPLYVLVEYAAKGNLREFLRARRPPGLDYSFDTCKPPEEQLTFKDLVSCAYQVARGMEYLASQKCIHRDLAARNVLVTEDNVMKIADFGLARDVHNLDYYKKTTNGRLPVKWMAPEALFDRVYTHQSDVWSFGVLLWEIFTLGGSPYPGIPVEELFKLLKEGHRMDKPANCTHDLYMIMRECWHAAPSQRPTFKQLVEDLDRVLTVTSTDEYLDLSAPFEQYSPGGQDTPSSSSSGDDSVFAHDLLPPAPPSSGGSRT
Protocol: as §1

FLT3 = FLT3 (Homo sapiens, UniProt P36888); details: FLT3, 1 µM; read-out: residual enzyme activity
Protocol: as §1

GCK/MAP4K2 = GCK/MAP4K2 (Homo sapiens, UniProt Q12851); details: GCK/MAP4K2, 1 µM; read-out: residual enzyme activity
Protocol: as §1

GRK3 = GRK3 (Homo sapiens, UniProt P35626); details: GRK3, 1 µM; read-out: residual enzyme activity
Protocol: as §1

GRK7 = GRK7 (Homo sapiens, UniProt Q8WTQ7); details: GRK7, 1 µM; read-out: residual enzyme activity
Protocol: as §1

JAK1 = JAK1 (Homo sapiens, UniProt P23458); details: JAK1, 1 µM; read-out: residual enzyme activity
Protocol: as §1

JNK1 = JNK1 (Homo sapiens, UniProt P45983); details: JNK1, 1 µM; read-out: residual enzyme activity
Protocol: as §1

LATS2 = LATS2 (Homo sapiens, UniProt Q9NRM7); details: LATS2, 1 µM; read-out: residual enzyme activity
Sequence of LATS2 (Q9NRM7 whole entry, species assumed): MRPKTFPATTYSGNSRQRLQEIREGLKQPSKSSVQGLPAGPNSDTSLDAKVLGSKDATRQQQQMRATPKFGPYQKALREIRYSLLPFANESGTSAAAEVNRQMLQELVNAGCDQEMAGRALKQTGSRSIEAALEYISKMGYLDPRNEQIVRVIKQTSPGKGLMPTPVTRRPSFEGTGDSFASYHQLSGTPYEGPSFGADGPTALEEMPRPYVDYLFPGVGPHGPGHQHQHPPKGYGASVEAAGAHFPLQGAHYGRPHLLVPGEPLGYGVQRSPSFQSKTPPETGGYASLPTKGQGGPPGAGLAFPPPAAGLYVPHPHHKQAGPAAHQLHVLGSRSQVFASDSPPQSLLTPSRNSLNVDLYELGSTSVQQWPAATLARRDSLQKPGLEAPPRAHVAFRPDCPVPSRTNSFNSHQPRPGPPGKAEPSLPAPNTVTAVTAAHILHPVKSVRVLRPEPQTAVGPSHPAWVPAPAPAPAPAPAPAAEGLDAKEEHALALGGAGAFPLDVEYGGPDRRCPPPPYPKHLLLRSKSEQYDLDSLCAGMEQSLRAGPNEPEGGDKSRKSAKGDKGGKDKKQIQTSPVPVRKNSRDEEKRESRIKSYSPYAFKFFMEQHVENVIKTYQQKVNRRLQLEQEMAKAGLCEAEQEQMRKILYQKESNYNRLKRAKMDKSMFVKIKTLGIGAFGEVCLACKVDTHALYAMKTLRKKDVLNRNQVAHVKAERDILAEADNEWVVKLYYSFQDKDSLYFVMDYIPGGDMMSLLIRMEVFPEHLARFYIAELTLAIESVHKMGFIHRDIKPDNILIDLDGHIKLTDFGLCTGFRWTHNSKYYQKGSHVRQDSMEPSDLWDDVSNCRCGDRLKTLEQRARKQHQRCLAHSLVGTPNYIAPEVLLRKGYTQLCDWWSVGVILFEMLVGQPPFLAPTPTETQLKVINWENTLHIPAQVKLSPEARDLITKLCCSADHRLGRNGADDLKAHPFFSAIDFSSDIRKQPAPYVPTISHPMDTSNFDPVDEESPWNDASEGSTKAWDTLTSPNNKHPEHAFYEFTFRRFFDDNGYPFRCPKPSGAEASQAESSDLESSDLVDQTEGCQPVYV
Protocol: as §1

LCK = LCK (Homo sapiens, UniProt P06239); details: read-out: residual enzyme activity
Sequence of LCK (P06239 whole entry, species assumed): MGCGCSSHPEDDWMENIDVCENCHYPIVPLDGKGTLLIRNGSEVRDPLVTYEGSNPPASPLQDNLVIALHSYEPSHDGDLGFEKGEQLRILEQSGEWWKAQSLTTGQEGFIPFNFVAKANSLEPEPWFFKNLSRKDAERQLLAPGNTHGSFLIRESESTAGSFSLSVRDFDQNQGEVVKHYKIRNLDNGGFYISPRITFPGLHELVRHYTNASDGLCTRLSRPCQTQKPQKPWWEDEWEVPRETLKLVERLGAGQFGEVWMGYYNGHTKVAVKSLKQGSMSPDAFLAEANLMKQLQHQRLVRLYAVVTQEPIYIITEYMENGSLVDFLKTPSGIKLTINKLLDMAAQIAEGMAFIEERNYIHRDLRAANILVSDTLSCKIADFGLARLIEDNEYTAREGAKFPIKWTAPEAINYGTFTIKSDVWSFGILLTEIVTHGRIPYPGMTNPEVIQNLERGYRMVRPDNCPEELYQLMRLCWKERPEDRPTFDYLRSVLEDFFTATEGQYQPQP
Protocol: as §1

LCK2/ICK = LCK2/ICK (Homo sapiens, UniProt Q9UPZ9); details: read-out: residual enzyme activity
Protocol: as §1

LRRK2 = LRRK2 (Homo sapiens, UniProt Q5S007); details: LRRK2, 1 µM; read-out: residual enzyme activity
Protocol: as §1

MAPKAPK3 = MAPKAPK3 (Homo sapiens, UniProt Q16644); details: MAPKAPK3, 1 µM; read-out: residual enzyme activity
Protocol: as §1

MARK1 = MARK1 (Homo sapiens, UniProt Q9P0L2); details: MARK1, 1 µM; read-out: residual enzyme activity
Protocol: as §1

MYLK3 = MYLK3 (Homo sapiens, UniProt Q32MK0); details: MYLK3, 1 µM; read-out: residual enzyme activity
Protocol: as §1

NEK5 = NEK5 (Homo sapiens, UniProt Q6P3R8); details: NEK5, 1 µM; read-out: residual enzyme activity
Protocol: as §1

NEK7 = NEK7 (Homo sapiens, UniProt Q8TDX7); details: NEK7, 1 µM; read-out: residual enzyme activity
Sequence of NEK7 (Q8TDX7 whole entry, species assumed): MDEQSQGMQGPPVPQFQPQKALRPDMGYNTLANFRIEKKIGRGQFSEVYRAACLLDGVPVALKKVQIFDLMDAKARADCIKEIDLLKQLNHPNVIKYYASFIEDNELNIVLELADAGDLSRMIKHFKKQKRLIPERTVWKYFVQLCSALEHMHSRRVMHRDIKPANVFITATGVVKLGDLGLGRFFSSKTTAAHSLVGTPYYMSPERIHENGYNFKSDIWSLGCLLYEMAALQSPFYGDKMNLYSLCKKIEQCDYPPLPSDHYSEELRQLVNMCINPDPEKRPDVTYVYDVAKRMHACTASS
Protocol: as §1

OSR1/OXSR1 = OSR1/OXSR1 (Homo sapiens, UniProt O95747); details: OSR1/OXSR1, 1 µM; read-out: residual enzyme activity
Protocol: as §1

P70S6K/RPS6KB1 = P70S6K/RPS6KB1 (Homo sapiens, UniProt P23443); details: read-out: residual enzyme activity
Sequence of P70S6K/RPS6KB1 (P23443 whole entry): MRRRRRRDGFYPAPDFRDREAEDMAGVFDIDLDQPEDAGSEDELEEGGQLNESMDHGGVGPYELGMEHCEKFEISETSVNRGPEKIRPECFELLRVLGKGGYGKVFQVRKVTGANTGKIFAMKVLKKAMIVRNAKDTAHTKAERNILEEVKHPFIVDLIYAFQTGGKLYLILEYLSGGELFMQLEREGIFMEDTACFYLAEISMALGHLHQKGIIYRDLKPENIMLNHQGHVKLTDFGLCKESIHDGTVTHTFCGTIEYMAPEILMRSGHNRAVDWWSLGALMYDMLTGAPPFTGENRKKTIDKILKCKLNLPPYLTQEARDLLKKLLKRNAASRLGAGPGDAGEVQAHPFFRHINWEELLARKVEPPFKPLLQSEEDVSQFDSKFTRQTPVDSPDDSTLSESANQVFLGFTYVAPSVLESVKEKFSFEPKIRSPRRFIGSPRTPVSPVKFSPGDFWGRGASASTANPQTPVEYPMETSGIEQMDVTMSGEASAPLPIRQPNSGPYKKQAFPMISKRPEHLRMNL
Protocol: as §1

P70S6KB/RPS6KB2 = P70S6KB/RPS6KB2 (Homo sapiens, UniProt Q9UBS0); details: read-out: residual enzyme activity
Protocol: as §1

PKCB2 = PKCB2 (Homo sapiens, UniProt P05771); details: PKCb2, 1 µM; read-out: residual enzyme activity
Protocol: as §1

PLK2 = PLK2 (Homo sapiens, UniProt Q9NYY3); details: PLK2, 1 µM; read-out: residual enzyme activity
Sequence of PLK2 (Q9NYY3 whole entry, species assumed): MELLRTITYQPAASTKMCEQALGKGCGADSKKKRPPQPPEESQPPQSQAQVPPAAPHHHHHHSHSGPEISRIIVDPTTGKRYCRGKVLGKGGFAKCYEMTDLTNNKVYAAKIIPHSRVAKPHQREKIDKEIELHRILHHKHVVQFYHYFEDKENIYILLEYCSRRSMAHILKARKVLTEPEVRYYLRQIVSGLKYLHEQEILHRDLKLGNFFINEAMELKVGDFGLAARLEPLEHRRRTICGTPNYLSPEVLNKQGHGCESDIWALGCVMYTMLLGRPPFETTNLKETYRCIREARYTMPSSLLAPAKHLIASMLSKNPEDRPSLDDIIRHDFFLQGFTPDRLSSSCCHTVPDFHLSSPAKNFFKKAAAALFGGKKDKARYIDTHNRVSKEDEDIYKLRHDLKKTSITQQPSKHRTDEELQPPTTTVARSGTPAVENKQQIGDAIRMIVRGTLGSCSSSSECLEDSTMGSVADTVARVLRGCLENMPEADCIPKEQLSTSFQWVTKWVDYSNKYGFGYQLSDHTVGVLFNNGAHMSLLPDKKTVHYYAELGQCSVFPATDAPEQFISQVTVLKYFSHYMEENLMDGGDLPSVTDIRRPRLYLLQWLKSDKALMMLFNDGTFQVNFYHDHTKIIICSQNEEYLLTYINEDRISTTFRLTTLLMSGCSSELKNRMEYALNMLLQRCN
Protocol: as §1

SIK2 = SIK2 (Homo sapiens, UniProt Q9H0K1); details: SIK2, 1 µM; read-out: residual enzyme activity
Protocol: as §1

STK25/YSK1 = STK25/YSK1 (Homo sapiens, UniProt O00506); details: STK25/YSK1, 1 µM; read-out: residual enzyme activity
Protocol: as §1

TRKC = TRKC (Homo sapiens, UniProt Q16288); details: read-out: residual enzyme activity
Protocol: as §1

ULK3 = ULK3 (Homo sapiens, UniProt Q6PHR2); details: ULK3, 1 µM; read-out: residual enzyme activity
Protocol: as §1

ZAP70 = ZAP70 (Homo sapiens, UniProt P43403); details: ZAP70, 1 µM; read-out: residual enzyme activity
Protocol: as §1

Sequence of ABL1 (P00519 whole entry): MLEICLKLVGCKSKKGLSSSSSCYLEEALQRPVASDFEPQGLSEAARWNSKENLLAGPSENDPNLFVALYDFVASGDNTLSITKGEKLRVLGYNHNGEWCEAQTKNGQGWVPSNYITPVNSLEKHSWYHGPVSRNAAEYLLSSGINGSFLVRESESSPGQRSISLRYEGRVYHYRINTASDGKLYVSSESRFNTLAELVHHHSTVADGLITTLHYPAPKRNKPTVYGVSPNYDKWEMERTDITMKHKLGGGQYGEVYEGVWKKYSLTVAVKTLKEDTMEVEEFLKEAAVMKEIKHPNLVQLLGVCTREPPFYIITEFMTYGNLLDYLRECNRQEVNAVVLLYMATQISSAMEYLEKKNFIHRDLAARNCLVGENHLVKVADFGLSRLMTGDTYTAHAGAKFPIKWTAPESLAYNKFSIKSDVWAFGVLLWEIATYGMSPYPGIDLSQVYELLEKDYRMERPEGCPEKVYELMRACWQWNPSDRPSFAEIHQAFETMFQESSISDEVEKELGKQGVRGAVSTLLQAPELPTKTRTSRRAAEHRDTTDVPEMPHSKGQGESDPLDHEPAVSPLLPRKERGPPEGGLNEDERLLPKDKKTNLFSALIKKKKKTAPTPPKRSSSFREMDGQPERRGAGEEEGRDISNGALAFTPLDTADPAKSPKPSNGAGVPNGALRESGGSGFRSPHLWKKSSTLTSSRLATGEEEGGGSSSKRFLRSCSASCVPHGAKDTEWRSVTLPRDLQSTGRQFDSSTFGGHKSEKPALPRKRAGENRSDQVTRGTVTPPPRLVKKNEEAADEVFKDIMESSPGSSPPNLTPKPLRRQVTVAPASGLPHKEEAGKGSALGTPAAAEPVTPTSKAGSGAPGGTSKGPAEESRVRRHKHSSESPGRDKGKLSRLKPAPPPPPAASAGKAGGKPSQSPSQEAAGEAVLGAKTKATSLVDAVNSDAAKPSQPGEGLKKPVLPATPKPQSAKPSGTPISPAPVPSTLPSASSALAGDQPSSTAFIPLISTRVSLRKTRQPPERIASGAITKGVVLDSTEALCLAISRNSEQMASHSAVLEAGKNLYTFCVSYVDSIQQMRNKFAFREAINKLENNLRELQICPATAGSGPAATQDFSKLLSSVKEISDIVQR

| Compound | remaining activity at 1 µM (ABL1) [%] | remaining activity at 1 µM (AXL) [%] | remaining activity at 1 µM (BRSK1) [%] | remaining activity at 1 µM (CDK18/CYCLIN Y (PCTK3)) [%] | remaining activity at 1 µM (DYRK1B) [%] | remaining activity at 1 µM (EPHB2) [%] | remaining activity at 1 µM (ERBB2/HER2) [%] | remaining activity at 1 µM (FGFR3) [%] | remaining activity at 1 µM (FLT3) [%] | remaining activity at 1 µM (GCK/MAP4K2) [%] | remaining activity at 1 µM (GRK3) [%] | remaining activity at 1 µM (GRK7) [%] | remaining activity at 1 µM (JAK1) [%] | remaining activity at 1 µM (JNK1) [%] | remaining activity at 1 µM (LATS2) [%] | remaining activity at 1 µM (LCK) [%] | remaining activity at 1 µM (LCK2/ICK) [%] | remaining activity at 1 µM (LRRK2) [%] | remaining activity at 1 µM (MAPKAPK3) [%] | remaining activity at 1 µM (MARK1) [%] | further results |
| --- | --- | --- | --- | --- | --- | --- | --- | --- | --- | --- | --- | --- | --- | --- | --- | --- | --- | --- | --- | --- | --- |
| Cc1cn(-c2cc(C(=O)Nc3ccc(C)c(N4Cc5cnc(NC6CC6)nc5C5(CC5)C4=O)c3)cc(C(F)(F)F)c2)cn1 [Compound 8, N-(3-(2'-(cyclopropylamino)-7'-oxo-5'H-spiro[cyclopropane-1,8'-pyrido[4,3-d]pyrimidine]-6'(7'H)-yl)-4-methylphenyl)-3-(4-methyl-1H-imidazol-1-yl)-5-(trifluoromethyl)benzamide] | ≤ 40 | > 40 | > 40 | > 40 | > 40 | ≤ 40 | ≤ 40 | ≤ 40 | ≤ 40 | ≤ 40 | > 40 | > 40 | ≤ 40 | > 40 | ≤ 40 | ≤ 40 | > 40 | > 40 | > 40 | > 40 | remaining activity at 1 µM (MYLK3): > 40%; remaining activity at 1 µM (NEK5): > 40%; remaining activity at 1 µM (NEK7): > 40%; remaining activity at 1 µM (OSR1/OXSR1): > 40%; remaining activity at 1 µM (P70S6K/RPS6KB1; P70S6K/RPS6KB1, 1 µM): > 40%; remaining activity at 1 µM (P70S6KB/RPS6KB2; P70S6KB/RPS6KB2, 1 µM): > 40%; remaining activity at 1 µM (PKCB2): > 40%; remaining activity at 1 µM (PLK2): > 40%; remaining activity at 1 µM (SIK2): > 40%; remaining activity at 1 µM (STK25/YSK1): > 40%; remaining activity at 1 µM (TRKC): ≤ 40%; remaining activity at 1 µM (ULK3): > 40%; remaining activity at 1 µM (ZAP70): > 40% |
| Cc1ccc(Nc2ncc3c(n2)C2(CC2)C(=O)N(c2cc(NC(=O)c4cccc(C(F)(F)F)c4)ccc2C)C3)cn1 [Compound 51, N-(4-methyl-3-(2'-((6-methylpyridin-3-yl)amino)-7'-oxo-5'H-spiro[cyclopropane-1,8'-pyrido[4,3-d]pyrimidine]-6'(7'H)-yl)phenyl)-3-(trifluoromethyl)benzamide] | ≤ 40 | > 40 | > 40 | > 40 | > 40 | ≤ 40 | ≤ 40 | ≤ 40 | ≤ 40 | ≤ 40 | > 40 | > 40 | ≤ 40 | ≤ 40 | ≤ 40 | ≤ 40 | > 40 | ≤ 40 | > 40 | > 40 | remaining activity at 1 µM (MYLK3): > 40%; remaining activity at 1 µM (NEK5): > 40%; remaining activity at 1 µM (NEK7): > 40%; remaining activity at 1 µM (OSR1/OXSR1): > 40%; remaining activity at 1 µM (P70S6K/RPS6KB1; p70S6K/RPS6KB1, 1 µM): ≤ 40%; remaining activity at 1 µM (P70S6KB/RPS6KB2; p70S6Kb/RPS6KB2, 1 µM): > 40%; remaining activity at 1 µM (PKCB2): > 40%; remaining activity at 1 µM (PLK2): > 40%; remaining activity at 1 µM (SIK2): ≤ 40%; remaining activity at 1 µM (STK25/YSK1): > 40%; remaining activity at 1 µM (TRKC): ≤ 40%; remaining activity at 1 µM (ULK3): > 40%; remaining activity at 1 µM (ZAP70): > 40% |
